Results: US20060135491A1, “Vitamin D3 analog useful for the treatment of osteoporosis” (priority 2004, published 2006)

What was measured:
HL-60 cells = experiment: Cell differentiation, NBT reduction assay; assay type: cell-based; conditions: in comparison with 1α,25(OH)2D3 as control (100% activity); 4 days
Description: The vitamin D analog of the present invention was evaluated for its effect on cell differentiation. Falcon tissue chambers were seeded with 4×10^4 cells/cm of HL-60 cells using RPMI 1640 medium supplemented with […] FCS and gentamycin (50 μg/mL),in a final cell volume of 5 mL. The cultures were maintained at 37° C. in an atmosphere of humidified air containing 5% CO2. After 24 hours incubation, the control 1αa,25(OH)2D3 and the compound to be tested were each dissolved in ethanol and added to the cell culture with the final concentration being less than 0.2%. After 4 days, the dishes were shaken to lose adherent cells. The cells were then washed twice in RPMI medium, counted, and then assayed for differentiation markers (NBT reduction assay). Superoxide production was measured as NBT reducing activity as described by Ostrem et al. in Proc. Natl. Acad. Sci. USA, (1987) 84: 2610-2614. HL-60 cells at 1×10^6/mL were mixed with an equal volume of freshly prepared solution of phorbol 12-myristate 13-acetate (200 ng/mL) and NBT (2 μg/mL) and incubated for 30 minutes at 37° C. The percentage of cells containing black formazan deposits was determined using a hemacytometer. […]

NMRI mice = experiment: In vivo determination of calcium levels; conditions: for Body Weight / Femur Ca / Serum Ca: 7 consecutive days
Description: Eight week old, male NMRI mice were obtained from the Animal Center of Leuven (Belgium) and fed a vitamin D-replete diet (0.2% calcium, 1% phosphate, 2000 U vitamin D/kg; Hope Farms, Woerden, The Netherlands). […] The control group was injected with vehicle (arachis oil). […] The following parameters were evaluated: serum calcium and femur calcium. Serum calcium was measured by a microcolorimetric assay (Sigma, St. Louis, Mo.). Femurs were removed and femur calcium content was measured in HCl-dissolved bone ash (obtained by heating for 24 hours in an oven at 100° C.), using the same technique as for serum calcium.

[1] = target: T1, Human Vitamin D Binding Protein (hDBP) (Homo sapiens, UniProt P02774); experiment: Affinity for human vitamin D binding protein, displacement of [3H]1α,25(OH)2D3; conditions: relative affinity at 50% displacement of [3H]1α,25(OH)2D3; 1α,25(OH)2D3 assigned 100%; hDBP 0.18 μM, 3 hours at 4° C.
T1 sequence (P02774 17-474): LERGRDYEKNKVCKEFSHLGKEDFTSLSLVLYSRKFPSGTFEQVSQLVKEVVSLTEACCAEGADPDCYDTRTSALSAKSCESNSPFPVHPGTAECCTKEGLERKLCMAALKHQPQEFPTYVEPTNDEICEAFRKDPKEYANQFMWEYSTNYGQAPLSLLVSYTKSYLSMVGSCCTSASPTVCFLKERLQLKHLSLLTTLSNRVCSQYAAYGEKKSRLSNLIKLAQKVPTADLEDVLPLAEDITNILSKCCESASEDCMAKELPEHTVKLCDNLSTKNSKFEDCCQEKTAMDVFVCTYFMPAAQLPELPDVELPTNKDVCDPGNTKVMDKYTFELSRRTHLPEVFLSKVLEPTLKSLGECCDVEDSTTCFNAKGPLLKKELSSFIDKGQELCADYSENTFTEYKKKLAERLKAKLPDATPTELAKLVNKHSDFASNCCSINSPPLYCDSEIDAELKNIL
Description: The solution was incubated for 3 hours at 4° C. Final phase separation was obtained by adding 0.5 mL of cold dextran-coated charcoal.

MCF-7 cells = experiment: Cell proliferation, [3H]thymidine incorporation; assay type: cell-based; conditions: in comparison with 1α,25(OH)2D3 as control (100% activity); 72 hours incubation
Description: The compound of the present invention was evaluated for its effect on cell proliferation. […] The cultures were maintained at 37° C. in an atmosphere of humidified air containing 5% CO2. The MCF-7 cells were seeded at approximately 5×10^3 cells/well in the DMEM modified medium in a 96-well microtiter plate. […] Finally, 1 μCi of [^3H]thymidine was added to each well and the cells were harvested after a further 4 hour incubation period. The cells were harvested with a Packard Harvester and the cell count measured by a Packard Topcount System.

Vitamin D receptor (VDR) = target: T2, Vitamin D receptor (VDR) (Sus scrofa, UniProt A3RGC1); conditions: relative affinity at 50% displacement of [3H]1α,25(OH)2D3; 1α,25(OH)2D3 assigned 100%; porcine intestinal mucosa supernatant, 4° C., 20 hours
T2 sequence (A3RGC1 1-427): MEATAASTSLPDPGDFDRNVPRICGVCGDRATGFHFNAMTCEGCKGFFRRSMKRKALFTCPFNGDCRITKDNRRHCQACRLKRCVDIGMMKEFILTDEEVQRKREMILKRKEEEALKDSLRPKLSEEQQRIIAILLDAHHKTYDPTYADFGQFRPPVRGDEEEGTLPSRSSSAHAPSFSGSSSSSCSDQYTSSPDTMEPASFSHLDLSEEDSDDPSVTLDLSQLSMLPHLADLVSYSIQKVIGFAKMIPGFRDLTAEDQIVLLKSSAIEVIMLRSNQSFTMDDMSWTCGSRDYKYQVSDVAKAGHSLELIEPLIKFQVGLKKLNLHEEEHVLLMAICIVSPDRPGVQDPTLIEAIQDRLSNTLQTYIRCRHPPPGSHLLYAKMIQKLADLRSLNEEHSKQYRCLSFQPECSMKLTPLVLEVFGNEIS

[2] = system: ovariectomized Sprague-Daley rats; experiment: Three-month treatment efficacy in ovariectomized rats; assay type: in vivo; conditions: oral
Description: Efficacy was tested in 6 month old Sprague-Daley rats which were sham-operated or ovariectomized (OVX). Ovariectomized animals were sacrificed after two months as a pre-treatment control group, with remaining animals being treated for three months with vehicle or with (1R,3R)-5-{(E)-(2R,5R)-2-[2-(4-hydroxy-4-methylpentyl)-spiro[4.5]dec-7-ylidene]-ethylidene}-cyclohexane-1,3-diol (at dosages of 0.3, 1,3 or 10 μg/kg/day respectively) by oral administration. At the end of treatment, blood was obtained by cardiac puncture for evaluation of serum calcium levels. Hypercalcemia was identified as a mean value 10% greater than the OVX-vehicle group. Bone efficacy was measured using micro-CT (Scanco μCT 40) evaluation of the vertebral cancellous bone volume compared to either the final OVX-group and/or the pre-treatment OVX group.

Compound	HL-60 cell differentiation, percentage activity (at 50% of the dose response) (HL-60 cells) [%]	Body Weight (NMRI mice; 0.1 μg/kg/day i.p.) [g]	Femur Ca (NMRI mice; 0.1 μg/kg/day i.p.) [mg]	Serum Ca (NMRI mice; 0.1 μg/kg/day i.p.) [mg/dL]	Body Weight (NMRI mice; 0.2 μg/kg/day i.p.) [g]	Femur Ca (NMRI mice; 0.2 μg/kg/day i.p.) [mg]	Serum Ca (NMRI mice; 0.2 μg/kg/day i.p.) [mg/dL]	Body Weight (NMRI mice; 0.4 μg/kg/day i.p.) [g]	Femur Ca (NMRI mice; 0.4 μg/kg/day i.p.) [mg]	Serum Ca (NMRI mice; 0.4 μg/kg/day i.p.) [mg/dL]	estimated serum calcium level as compared with 1α,25(OH)2D3 (NMRI mice; 1α,25(OH)2D3 assigned a value of 100%, i.p., 7 days) [%]	% hDBP binding [1] [%]	MCF-7 cell proliferation, percentage activity (at 50% of the dose response) (MCF-7 cells) [%]	% VDR binding (Vitamin D receptor (VDR)) [%]	Femur Ca (NMRI mice; 5 μg/kg/day i.p.) [mg]	Femur Ca (NMRI mice; 10 μg/kg/day i.p.) [mg]	vertebral cancellous bone volume (micro-CT) ([2]; OVX rats, three months, 0.3, 1,3 or 10 μg/kg/day, vs pre-treatment and final OVX groups)	hypercalcemia (mean serum calcium 10% greater than OVX-vehicle group) ([2]; three months, at doses that increased vertebral bone volume)
C=C1/C(=C\C=C2/CCC[C@]3(C)[C@@H]([C@H](C)CCCC(C)(C)O)CC[C@@H]23)C[C@@H](O)C[C@@H]1O [1α,25(OH)2D3, 1α,25-dihydroxyvitamin D3]	100	30.5	10.9	13.3	27.8	10.3	14.1	23.2	8.9	18.2	100	–	–	–	–	–	–	–
CC(C)(O)CCC[C@@H]1CC[C@]2(CCC/C(=C\C=C3C[C@@H](O)C[C@H](O)C3)C2)C1 [(1R,3R)-5-{(E)-(2R, 5R)-2-[2-(4-hydroxy-4-methylpentyl)-spiro[4.5]dec-7-ylidene]-ethylidene}-cyclohexane-1,3-diol]	200	–	–	–	–	–	–	–	10.1	–	–	3	450	10	11.3	12.3	significantly increase vertebral bone volume above pre-treatment and final OVX groups	did not induce hypercalcemia
